Measurements from PMC6509406 (Chembiochem : a European journal of chemical biology, 2018).
Entries after “also recorded” stand apart in the source; their conditions may differ.

What was measured:
[1] = test system: mCYPet-YcgR-mYPet c-di-GMP biosensor (PilZ protein YcgR); details: cited from earlier work; for biosensor FRET response: specificity for c-di-GMP
[2] = molecular target: DgcA (CC3285) diguanylate cyclase (Caulobacter crescentus, UniProt Q9A3B9); assay: FRET-based DGC activity assay, dose-response; assay type: biochemical; details: for Hill coeff: from fitting the concentration-response curves; for binding affinity towards DgcA / mode of modulation of DgcA activity: in words; for remaining DGC activity of the enzyme-inhibitor-substrate complex: compound saturating concentration
[3] = IC50 (binding affinity) against DgcA, running text and figure legends
[4] = IC50 ± SD, Table 2, negative and silent allosteric modulators

**Q.** Which “biosensor FRET response” value [1] does the source give for `Nc1nc2c(ncn2[C@@H]2O[C@@H]3COP(=O)(O)O[C@H]3[C@H]2O)c(=O)[nH]1` [cyclic GMP] here?
**A.** The value was “no detectable response”.

**Q.** Which IC50 [2, 3] does the source give for `O=C(OCC(=O)N1CCCC1=O)c1ccc2scnc2c1` [Compound 1p, 2-oxo-2-(2-oxopyrrolidin-1-yl)ethyl benzothiazole-5-carboxylate] here?
**A.** The IC50 was 626 µM.

**Q.** And the IC50 [2, 4]?
**A.** Its IC50 is 627 ± 49 µM.

**Q.** With `Cn1cnc2cc(C(=O)OCC(=O)N3CCCC3=O)ccc21` [Compound 1m, 2-oxo-2-(2-oxopyrrolidin-1-yl)ethyl 1-methyl-1H-benzo[d]imidazole-5-carboxylate] as the molecule, how does the IC50 [2, 4] read?
**A.** The IC50 was 82.2 ± 14.6 µM.

**Q.** What about the Hill coeff ([2]; Table 2) of the same molecule?
**A.** Its Hill coeff is 1.52 ± 0.28.

**Q.** What about the “binding affinity towards DgcA” value [2] of the same molecule?
**A.** Its value is “strongly reduced binding affinities”.

**Q.** And the “mode of modulation of DgcA activity” value [2]?
**A.** The value was “negative modulators”.

**Q.** Which “binding affinity towards DgcA” value [2] does the source give for `O=C(OCCC(=O)N1CCCC1=O)c1ccc2ncsc2c1` [Compound 1u, 3-oxo-3-(2-oxopyrrolidin-1-yl)propyl benzo[d]thiazole-6-carboxylate] here?
**A.** Its value is “completely abolished binding affinity”.

**Q.** For `O=C(OCC(=O)N1CCCC1=O)c1ccc2cnccc2c1` [Compound 1n, 2-oxo-2-(2-oxopyrrolidin-1-yl)ethyl isoquinoline-6-carboxylate], which IC50 [2, 4] is on record?
**A.** Its IC50 is 179 ± 10.5 µM.

**Q.** What about the “% Activity ESI (DGC activity of the enzyme-substrate-inhibitor complex)” value ([2]; Table 2, compound saturation) of the same molecule?
**A.** The value was 0.0 ± 2.0%.

**Q.** And the Hill coeff ([2]; Table 2)?
**A.** The Hill coeff was 2.06 ± 0.15.

**Q.** What about the “binding affinity towards DgcA” value [2] of the same molecule?
**A.** The value was “strongly reduced binding affinities”.

**Q.** And the “mode of modulation of DgcA activity” value [2]?
**A.** Its value is “negative modulators”.

**Q.** For `O=C(OCC(=O)N1CCCC1=O)c1ccc2occc2c1` [Compound 1j, 2-Oxo-2-(2-oxopyrrolidin-1-yl)ethyl benzofuran-5-carboxylate], which IC50 [2, 4] is on record?
**A.** Its IC50 is 4.4 ± 2.2 µM.

**Q.** And the “% Activity ESI (DGC activity of the enzyme-substrate-inhibitor complex)” value ([2]; Table 2, compound saturation)?
**A.** The value was 92.2 ± 0.6%.

**Q.** And the Hill coeff ([2]; Table 2)?
**A.** The Hill coeff was 2.05 ± 0.12.

**Q.** What about the “remaining DGC activity of the enzyme-inhibitor-substrate complex” value [2] of the same molecule?
**A.** Its value is 92.2%.

**Q.** What about the “mode of modulation of DgcA activity” value [2] of the same molecule?
**A.** The value was “silent allosteric modulators”.

**Q.** Which IC50 [2, 4] does the source give for `Cn1ccc2cc(C(=O)OCC(=O)N3CCCC3=O)ccc21` [Compound 1l, 2-oxo-2-(2-oxopyrrolidin-1-yl)ethyl 1-methyl-1H-indole-5-carboxylate] here?
**A.** Its IC50 is 300 ± 37.7 µM.

**Q.** And the “binding affinity towards DgcA” value [2]?
**A.** The value was “strongly reduced binding affinities”.

**Q.** And the “mode of modulation of DgcA activity” value [2]?
**A.** The value was “negative modulators”.

**Q.** Which Kd ([1]; read-out: binding constant (KD) of the biosensor for c-di-GMP, 25°C) does the source give for `Nc1nc2c(ncn2[C@@H]2O[C@@H]3COP(=O)(O)O[C@H]4[C@@H](O)[C@H](n5cnc6c(=O)[nH]c(N)nc65)O[C@@H]4COP(=O)(O)O[C@H]3[C@H]2O)c(=O)[nH]1` [c-di-GMP, cyclic diguanosine monophosphate] here?
**A.** Its Kd is 0.198 µM.

**Q.** Which results are given for `O=C(OCC(=O)N1CCCC1=O)c1ccc2nccnc2c1` [Compound 1o, 2-oxo-2-(2-oxopyrrolidin-1-yl)ethyl quinoxaline-6-carboxylate]?
**A.** IC50 [2, 4]: 344 ± 19.9 µM; % Activity ESI (DGC activity of the enzyme-substrate-inhibitor complex) ([2]; Table 2, compound saturation): 0.0 ± 0.7%; Hill coeff ([2]; Table 2): 2.22 ± 0.16; binding affinity towards DgcA [2]: strongly reduced binding affinities; mode of modulation of DgcA activity [2]: negative modulators

**Q.** What does the source list for `O=C(OCC(=O)N1CCCC1=O)c1ccc2ncsc2c1` [Compound 1, [2-oxo-2-(2-oxopyrrolidin-1-yl)ethyl] 1,3-benzothiazole-6-carboxylate]?
**A.** IC50 [2, 3]: < 10 µM; IC50 ([2]; IC50 ± SD, Table 1, 20 nM DgcA, 20 μM GTP, 25 °C, 1% DMSO): 4 ± 0.2 µM; Hill coeff ([2]; Table 1): 2.34 ± 0.19; % Activity ESI (DGC activity of the enzyme-substrate-inhibitor complex) ([2]; Table 1, inhibitor saturation): 1.40 ± 0.1%; remaining DGC activity of the enzyme-inhibitor-substrate complex [2]: 1.4%; mode of modulation of DgcA activity [2]: complete inhibition; also recorded: complete inhibitor; also recorded: complete negative allosteric modulator

**Q.** For `CC(OC(=O)c1ccc2ncsc2c1)C(=O)N1CCCC1=O` (stereo not drawn) [Compound 1t, 1-oxo-1-(2-oxopyrrolidin-1-yl)propan-2-yl benzo[d]thiazole-6-carboxylate], which “binding affinity towards DgcA” value [2] is on record?
**A.** Its value is “completely abolished binding affinity”.

**Q.** What does the source list for `O=C(OCC(=O)N1CCCC1=O)c1ccc([N+](=O)[O-])cc1` [Compound 1r, 2-oxo-2-(2-oxopyrrolidin-1-yl)ethyl 4-nitrobenzoate]?
**A.** AC50 [2]: 55.5 ± 13.6 µM; % Activity ESI (DGC activity of the enzyme-substrate-inhibitor complex) ([2]; Table 2, compound saturation): 156.4 ± 1.7%; Hill coeff ([2]; Table 2): 2.01 ± 0.18; remaining DGC activity of the enzyme-inhibitor-substrate complex [2]: 156%; mode of modulation of DgcA activity [2]: positive modulators

**Q.** For `Cc1ccc(C)c(OCCCC(=O)Nc2ccc(N3CCOCC3)cc2)c1` [Compound 2, 4-(2,5-dimethylphenoxy)-N-(4-morpholin-4-ylphenyl)butanamide], which IC50 [2, 3] is on record?
**A.** Its IC50 is < 10 µM.

**Q.** What about the IC50 ([2]; IC50 ± SD, Table 3, negative and silent allosteric modulators) of the same molecule?
**A.** Its IC50 is 6.4 ± 0.5 µM.

**Q.** What about the “% Activity ESI (DGC activity of the enzyme-substrate-inhibitor complex)” value ([2]; Table 3, compound saturation) of the same molecule?
**A.** Its value is 31.4 ± 1.3%.

**Q.** And the Hill coeff ([2]; Table 3)?
**A.** Its Hill coeff is 1.36 ± 0.13.

**Q.** And the “remaining DGC activity of the enzyme-inhibitor-substrate complex” value [2]?
**A.** Its value is 31.4%.

**Q.** And the “mode of modulation of DgcA activity” value [2]?
**A.** The value was “partial inhibitor”.

**Q.** For `O=C(NCC(=O)N1CCCC1=O)c1ccc2ncsc2c1` [Compound 1s, N-(2-oxo-2-(2-oxopyrrolidin-1-yl)ethyl)-benzo[d]thiazole-6-carboxamide], which IC50 [2, 3] is on record?
**A.** Its IC50 is 31.6 µM.

**Q.** What about the “remaining DGC activity of the enzyme-inhibitor-substrate complex” value [2] of the same molecule?
**A.** Its value is 48%.

**Q.** And the “mode of modulation of DgcA activity” value [2]?
**A.** The value was “partial inhibitor”.

**Q.** What does the source list for `O=C(OCC(=O)N1CCCC1=O)c1ccccc1` [Compound 1h, 2-oxo-2-(2-oxopyrrolidin-1-yl)ethyl benzoate]?
**A.** AC50 [2]: 238 ± 72 µM; % Activity ESI (DGC activity of the enzyme-substrate-inhibitor complex) ([2]; Table 2, compound saturation): 117.9 ± 1.4%; Hill coeff ([2]; Table 2): 2.02 ± 0.19; remaining DGC activity of the enzyme-inhibitor-substrate complex [2]: 118%; mode of modulation of DgcA activity [2]: positive modulators; also recorded: positive allosteric regulator

**Q.** What does the source list for `Cc1nc2ccc(C(=O)OCC(=O)N3CCCC3=O)cc2s1` [Compound 1i, 2-oxo-2-(2-oxopyrrolidin-1-yl)ethyl 2-methylbenzo[d]thiazole-6-carboxylate]?
**A.** IC50 [2, 4]: 52.9 ± 10.7 µM; % Activity ESI (DGC activity of the enzyme-substrate-inhibitor complex) ([2]; Table 2, compound saturation): 68.1 ± 8.8%; Hill coeff ([2]; Table 2): 2.72 ± 1.28

**Q.** Which AC50 [2] does the source give for `CN(C)c1ccc(C(=O)OCC(=O)N2CCCC2=O)cc1` [Compound 1q, 2-oxo-2-(2-oxopyrrolidin-1-yl)ethyl 4-(dimethylamino)benzoate] here?
**A.** Its AC50 is 222 ± 85.6 µM.

**Q.** And the “% Activity ESI (DGC activity of the enzyme-substrate-inhibitor complex)” value ([2]; Table 2, compound saturation)?
**A.** The value was 176.1 ± 3.3%.

**Q.** What about the Hill coeff ([2]; Table 2) of the same molecule?
**A.** The Hill coeff was 2.51 ± 0.68.

**Q.** And the “remaining DGC activity of the enzyme-inhibitor-substrate complex” value [2]?
**A.** Its value is 176%.

**Q.** What about the “mode of modulation of DgcA activity” value [2] of the same molecule?
**A.** The value was “positive modulators”.

**Q.** With `O=C(OCC(=O)N1CCCC1=O)c1ccc2[nH]ccc2c1` [Compound 1k, 2-oxo-2-(2-oxopyrrolidin-1-yl)ethyl 1H-indole-5-carboxylate] as the molecule, how does the IC50 [2, 4] read?
**A.** Its IC50 is 324 ± 39 µM.

**Q.** What about the “% Activity ESI (DGC activity of the enzyme-substrate-inhibitor complex)” value ([2]; Table 2, compound saturation) of the same molecule?
**A.** Its value is 6.3 ± 0.4%.

**Q.** What about the Hill coeff ([2]; Table 2) of the same molecule?
**A.** The Hill coeff was 2.37 ± 0.30.

**Q.** What about the “binding affinity towards DgcA” value [2] of the same molecule?
**A.** Its value is “strongly reduced binding affinities”.

**Q.** What about the “mode of modulation of DgcA activity” value [2] of the same molecule?
**A.** Its value is “negative modulators”.

**Q.** Which “biosensor FRET response” value [1] does the source give for `Nc1nc2c(ncn2[C@@H]2O[C@H](COP(=O)(O)OP(=O)(O)OP(=O)(O)O)[C@@H](O)[C@H]2O)c(=O)[nH]1` [guanosine 5-triphosphate] here?
**A.** The value was “no detectable response”.

**Q.** For `O=C(OCC(=O)N1CCCC1=O)c1ccc2ncoc2c1` [Compound 1g, 2-oxo-2-(2-oxopyrrolidin-1-yl)ethyl benzo[d]oxazole-6-carboxylate], which IC50 [2, 4] is on record?
**A.** The IC50 was 3.1 ± 0.7 µM.

**Q.** What about the “% Activity ESI (DGC activity of the enzyme-substrate-inhibitor complex)” value ([2]; Table 2, compound saturation) of the same molecule?
**A.** Its value is 87.7 ± 4.2%.

**Q.** And the Hill coeff ([2]; Table 2)?
**A.** The Hill coeff was 2.35 ± 0.82.

**Q.** What about the “remaining DGC activity of the enzyme-inhibitor-substrate complex” value [2] of the same molecule?
**A.** Its value is 87.7%.

**Q.** What about the “mode of modulation of DgcA activity” value [2] of the same molecule?
**A.** Its value is “silent allosteric modulators; also recorded: silent allosteric regulator”.
